# Columns and labels:
# Assay type in all cases: biochemical
# PDE1A = PDE1A (Homo sapiens, UniProt P54750); assay: PDE1 inhibition assay (PDE1A), SPA with tritium labelled cAMP; conditions: 15 nM tritium labelled cAMP, 1 hr at room temperature
# Description: (§1) PDE1A, PDE1B and PDE1C assays were performed as follows: the assays was performed in 60 μL samples containing a fixed amount of the PDE1 enzym1 (sufficient to convert 20-25% of the cyclic nucleotide substrate), a buffer (50 mM HEPES pH 7.6; 10 mM MgCl2; 0.02% Tween20), 0.1 mg/mL BSA, 15 nM tritium labelled cAMP and varying amounts of inhibitors. Reactions were initiated by addition of the cyclic nucleotide substrate, and reactions were allowed to proceed for 1 hr at room temperature before being terminated through mixing with 20 μL (0.2 mg) yttrium silicate SPA beads (PerkinElmer). The beads were allowed to settle for 1 hr in the dark before the plates were counted in a Wallac 1450 Microbeta counter. The measured signals were converted to activity relative to an uninhibited control (100%) and IC50 values were calculated using XIFit (model 205, IDBS).
# PDE1B = PDE1B (Homo sapiens, UniProt Q01064); assay: PDE1 inhibition assay (PDE1B), SPA with tritium labelled cAMP; conditions: 15 nM tritium labelled cAMP, 1 hr at room temperature
# Description: as §1
# PDE1C = PDE1C (Homo sapiens, UniProt Q14123); assay: PDE1 inhibition assay (PDE1C), SPA with tritium labelled cAMP; conditions: 15 nM tritium labelled cAMP, 1 hr at room temperature
# Description: as §1
# PDE9 = PDE9 (Homo sapiens, UniProt O76083); assay: PDE9 inhibition assay, SPA with 3H-cAMP; conditions: compound at 10 microM; 10 nM 3H-cAMP, 1 hr incubation
# Description: A PDE9 assay may for example, be performed as follows: The assay is performed in 60 μL samples containing a fixed amount of the relevant PDE enzyme (sufficient to convert 20-25% of the cyclic nucleotide substrate), a buffer (50 mM HEPES7.6; 10 mM MgCl2; 0.02% Tween20), 0.1 mg/mL BSA, 225 pCi of ^3H-labelled cyclic nucleotide substrate, tritium labeled cAMP to a final concentration of 5 nM and varying amounts of inhibitors. Reactions are initiated by addition of the cyclic nucleotide substrate, and reactions are allowed to proceed for one hr at room temperature before being terminated through mixing with 15 μL 8 mg/mL yttrium silicate SPA beads (Amersham). The beads are allowed to settle for one hr in the dark before the plates are counted in a Wallac 1450 Microbeta counter. The measured signal can be converted to activity relative to an uninhibited control (100%) and IC50 values can be calculated using the Xlfit extension to EXCEL.
# In the context of the present invention the assay was performed in 60 uL assay buffer (50 mM HEPES pH 7.6; 10 mM MgCl2; 0.02% Tween20) containing enough PDE9 to convert 20-25% of 10 nM ^3H-cAMP and varying amounts of inhibitors. Following a 1 hr incubation the reactions were terminated by addition of 15 uL 8 mg/mL yttrium silicate SPA beads (Amersham). The beads were allowed to settle for one hr in the dark before the plates were counted in a Wallac 1450 Microbeta counter.
# PDE1B, sequence (Q01064 whole entry): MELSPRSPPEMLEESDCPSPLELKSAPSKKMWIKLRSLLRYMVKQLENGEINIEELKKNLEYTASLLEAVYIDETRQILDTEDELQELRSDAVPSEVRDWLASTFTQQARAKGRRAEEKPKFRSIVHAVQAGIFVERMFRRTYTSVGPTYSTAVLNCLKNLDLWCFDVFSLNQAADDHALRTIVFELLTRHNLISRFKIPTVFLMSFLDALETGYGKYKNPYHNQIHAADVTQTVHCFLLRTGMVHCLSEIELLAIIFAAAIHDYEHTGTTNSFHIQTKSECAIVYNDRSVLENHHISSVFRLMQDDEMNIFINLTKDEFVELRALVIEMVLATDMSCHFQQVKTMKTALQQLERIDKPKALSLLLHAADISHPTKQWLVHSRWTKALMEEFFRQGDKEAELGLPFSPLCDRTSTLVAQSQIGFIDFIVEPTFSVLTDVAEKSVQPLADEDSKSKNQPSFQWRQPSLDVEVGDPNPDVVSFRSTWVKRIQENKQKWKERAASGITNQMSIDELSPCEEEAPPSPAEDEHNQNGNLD
# PDE1A, sequence (P54750 whole entry): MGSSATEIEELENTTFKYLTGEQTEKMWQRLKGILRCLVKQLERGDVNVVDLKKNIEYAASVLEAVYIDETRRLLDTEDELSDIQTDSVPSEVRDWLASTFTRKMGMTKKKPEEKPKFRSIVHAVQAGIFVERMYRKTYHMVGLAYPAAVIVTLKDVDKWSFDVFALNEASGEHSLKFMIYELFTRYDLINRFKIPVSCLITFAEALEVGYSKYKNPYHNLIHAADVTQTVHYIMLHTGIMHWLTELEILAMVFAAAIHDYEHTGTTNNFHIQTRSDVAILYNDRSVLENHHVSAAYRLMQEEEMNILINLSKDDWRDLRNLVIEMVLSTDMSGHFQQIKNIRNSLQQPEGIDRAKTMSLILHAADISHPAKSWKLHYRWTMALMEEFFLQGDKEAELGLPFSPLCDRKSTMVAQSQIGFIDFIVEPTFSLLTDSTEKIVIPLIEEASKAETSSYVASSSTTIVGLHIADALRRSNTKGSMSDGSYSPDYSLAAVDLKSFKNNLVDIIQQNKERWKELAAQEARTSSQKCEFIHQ
# PDE1C, sequence (Q14123 whole entry): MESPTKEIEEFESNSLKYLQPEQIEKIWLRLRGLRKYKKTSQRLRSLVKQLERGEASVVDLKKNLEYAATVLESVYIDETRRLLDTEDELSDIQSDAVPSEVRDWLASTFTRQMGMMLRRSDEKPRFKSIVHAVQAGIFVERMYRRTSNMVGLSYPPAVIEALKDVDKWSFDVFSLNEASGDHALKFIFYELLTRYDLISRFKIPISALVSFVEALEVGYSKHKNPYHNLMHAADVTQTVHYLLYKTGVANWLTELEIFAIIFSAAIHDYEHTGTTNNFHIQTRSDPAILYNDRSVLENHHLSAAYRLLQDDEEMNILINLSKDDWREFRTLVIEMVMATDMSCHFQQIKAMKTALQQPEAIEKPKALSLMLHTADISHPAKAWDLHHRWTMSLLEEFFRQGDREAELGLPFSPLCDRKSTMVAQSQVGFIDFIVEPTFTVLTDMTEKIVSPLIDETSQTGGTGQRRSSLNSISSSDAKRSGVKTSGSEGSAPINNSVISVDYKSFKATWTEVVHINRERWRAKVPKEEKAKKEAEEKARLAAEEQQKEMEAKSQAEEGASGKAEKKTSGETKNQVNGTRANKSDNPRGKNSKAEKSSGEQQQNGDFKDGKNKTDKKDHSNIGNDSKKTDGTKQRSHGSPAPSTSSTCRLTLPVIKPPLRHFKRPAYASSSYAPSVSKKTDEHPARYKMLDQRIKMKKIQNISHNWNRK
# PDE9, sequence (O76083 whole entry): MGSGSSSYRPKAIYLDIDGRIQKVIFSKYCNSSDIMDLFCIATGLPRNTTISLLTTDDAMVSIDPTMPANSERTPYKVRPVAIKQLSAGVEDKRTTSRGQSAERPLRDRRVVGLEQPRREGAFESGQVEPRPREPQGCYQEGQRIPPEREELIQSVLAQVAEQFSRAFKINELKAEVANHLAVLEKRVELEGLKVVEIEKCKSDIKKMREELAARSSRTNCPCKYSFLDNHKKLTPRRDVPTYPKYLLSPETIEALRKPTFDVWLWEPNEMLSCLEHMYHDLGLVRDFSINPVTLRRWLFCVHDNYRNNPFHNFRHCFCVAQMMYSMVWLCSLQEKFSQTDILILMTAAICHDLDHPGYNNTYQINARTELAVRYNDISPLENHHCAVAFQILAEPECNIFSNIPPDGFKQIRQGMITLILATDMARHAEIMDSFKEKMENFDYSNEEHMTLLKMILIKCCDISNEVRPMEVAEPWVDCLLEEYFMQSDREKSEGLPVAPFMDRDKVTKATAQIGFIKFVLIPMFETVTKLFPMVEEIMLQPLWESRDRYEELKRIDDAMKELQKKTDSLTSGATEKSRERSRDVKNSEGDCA
IC50 (PDE1A) [µM],IC50 (PDE1B) [µM],IC50 (PDE1C) [µM],inhibition at 10 µM (PDE9) [%],SMILES
0.058,0.066,0.077,18,"Cc1ccc(Cn2c(C)nn3c(C4CCOCC4)ncc3c2=O)cc1 [Example 22, 2-Methyl-3-(4-methylbenzyl)-7-(tetrahydro-2H-pyran-4-yl)imidazo[5,1-f][1,2,4]triazin-4(3H)-one]"
0.035,0.061,0.104,-11,"Cc1nn2c(C3CCOCC3)ncc2c(=O)n1Cc1ccc(Cl)cc1 [Example 24, 3-(4-Chlorobenzyl)-2-methyl-7-(tetrahydro-2H-pyran-4-yl)imidazo[5,1-f][1,2,4]triazin-4(3H)-one]"
0.07,0.162,0.017,-13,"Cc1nn2c(C3CCOCC3)ncc2c(=O)n1Cc1ccccc1 [Example 15, 3-Benzyl-2-methyl-7-(tetrahydro-2H-pyran-4-yl)imidazo[5,1-f][1,2,4]triazin-4(3H)-one]"

# More lines, now with the values behind:
SMILES,IC50 (PDE1A) [µM],IC50 (PDE1B) [µM],IC50 (PDE1C) [µM],inhibition at 10 µM (PDE9) [%]
"CCn1c(Cc2ccc(C)cc2)nn2c(C3CCOCC3)ncc2c1=O [Example 3, 3-Ethyl-2-(4-methylbenzyl)-7-(tetrahydro-2H-pyran-4-yl)imidazo[5,1-f][1,2,4]triazin-4(3H)-one]",0.18,0.079,0.279,15
"Cc1ccc(Cc2nn3c(C4CCOCC4)ncc3c(=O)n2CC(C)C)cc1 [Example 5, 3-isobutyl-2-(4-methylbenzyl)-7-(tetrahydro-2H-pyran-4-yl)imidazo[5,1-f][1,2,4]triazin-4(3H)-one]",0.047,0.052,0.038,-3
